Test results reported in patent US11780830B2, “Triazolone derivatives or salts thereof and pharmaceutical compositions comprising the same” (YUHAN CORPORATION, priority 2018, dated 2023).
Structures can show the parent of a compound that is named as a salt.

Experiments:
Type in all cases: biochemical
[1] = molecular target: T1, recombinant human VAP-1 (Homo sapiens, UniProt Q16853); experiment: Activity on recombinant human VAP-1, HRP-coupled Amplex Red hydrogen peroxide assay; conditions: substrate 1 mM benzylamine; compound incubated with enzyme at 37° C. for 30 minutes; pH 7.4; read-out: Inhibitory Activity (IC50, nM) human VAP-1
T1 construct: purchased R&D systems
T1 sequence (Q16853 1-763): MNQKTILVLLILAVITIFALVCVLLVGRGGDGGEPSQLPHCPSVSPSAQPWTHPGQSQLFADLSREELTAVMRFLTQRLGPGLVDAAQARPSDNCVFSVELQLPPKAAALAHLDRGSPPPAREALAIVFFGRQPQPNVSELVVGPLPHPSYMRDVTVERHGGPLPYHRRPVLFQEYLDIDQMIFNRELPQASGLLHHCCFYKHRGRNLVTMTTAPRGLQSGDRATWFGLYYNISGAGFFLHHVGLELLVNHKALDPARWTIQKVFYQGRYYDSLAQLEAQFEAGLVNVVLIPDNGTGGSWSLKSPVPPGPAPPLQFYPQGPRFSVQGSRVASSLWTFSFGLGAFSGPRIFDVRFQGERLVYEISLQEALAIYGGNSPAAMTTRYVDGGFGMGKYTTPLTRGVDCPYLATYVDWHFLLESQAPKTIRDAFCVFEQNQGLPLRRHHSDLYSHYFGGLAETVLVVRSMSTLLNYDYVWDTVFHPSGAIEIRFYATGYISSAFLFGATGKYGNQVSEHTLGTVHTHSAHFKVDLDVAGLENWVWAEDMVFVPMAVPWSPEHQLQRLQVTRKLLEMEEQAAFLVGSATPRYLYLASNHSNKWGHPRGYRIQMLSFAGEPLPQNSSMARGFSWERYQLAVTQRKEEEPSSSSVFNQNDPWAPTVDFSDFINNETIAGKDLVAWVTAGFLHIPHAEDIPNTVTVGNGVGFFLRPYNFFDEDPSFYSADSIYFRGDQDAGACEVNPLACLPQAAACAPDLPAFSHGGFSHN
Summary of the method: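 Dose-response IC50 determined from reduction in resorufin signal rate (544/590 nm, 1-2 h), with 30 min compound preincubation at 37 °C and 1 mM benzylamine as substrate.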

[2] = molecular target: T2, recombinant human MAO-A (monoamine oxidase-A) (Homo sapiens, UniProt P21397); experiment: Activity on recombinant human MAO-A, method similar to the VAP-1 assay; conditions: substrate 0.5 mM tyramine; read-out: Inhibitory Activity (IC50, nM) MAO-A
T2 construct: purchased Sigma-Aldrich
T2 sequence (P21397 1-527): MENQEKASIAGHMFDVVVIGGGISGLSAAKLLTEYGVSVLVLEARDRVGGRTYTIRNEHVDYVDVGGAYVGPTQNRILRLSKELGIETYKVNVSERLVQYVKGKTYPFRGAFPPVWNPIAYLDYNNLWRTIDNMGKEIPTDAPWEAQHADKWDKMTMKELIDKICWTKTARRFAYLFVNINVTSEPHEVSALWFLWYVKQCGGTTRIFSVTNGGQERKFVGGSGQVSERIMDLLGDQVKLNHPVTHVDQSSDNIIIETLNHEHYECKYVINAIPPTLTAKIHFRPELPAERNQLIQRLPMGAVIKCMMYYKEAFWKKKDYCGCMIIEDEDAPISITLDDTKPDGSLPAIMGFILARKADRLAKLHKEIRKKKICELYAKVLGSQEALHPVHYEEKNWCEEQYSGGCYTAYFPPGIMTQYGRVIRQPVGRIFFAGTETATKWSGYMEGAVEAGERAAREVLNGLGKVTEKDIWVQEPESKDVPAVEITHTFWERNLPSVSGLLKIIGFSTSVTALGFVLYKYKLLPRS
Summary of the method: (§1)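 Amplex Red/HRP coupled read-out of H2O2 with 0.5 mM tyramine for MAO-A or 1 mM benzylamine for MAO-B, following a 30-min compound–enzyme preincubation at 37° C. IC50 from percent inhibition of signal rate relative to uninhibited control.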

[3] = molecular target: T3, recombinant human MAO-B (monoamine oxidase-B) (Homo sapiens, UniProt P27338); experiment: Activity on recombinant human MAO-B, method similar to the VAP-1 assay; conditions: substrate 1 mM benzylamine; read-out: Inhibitory Activity (IC50, nM) MAO-B
T3 construct: purchased Sigma-Aldrich
T3 sequence (P27338 1-520): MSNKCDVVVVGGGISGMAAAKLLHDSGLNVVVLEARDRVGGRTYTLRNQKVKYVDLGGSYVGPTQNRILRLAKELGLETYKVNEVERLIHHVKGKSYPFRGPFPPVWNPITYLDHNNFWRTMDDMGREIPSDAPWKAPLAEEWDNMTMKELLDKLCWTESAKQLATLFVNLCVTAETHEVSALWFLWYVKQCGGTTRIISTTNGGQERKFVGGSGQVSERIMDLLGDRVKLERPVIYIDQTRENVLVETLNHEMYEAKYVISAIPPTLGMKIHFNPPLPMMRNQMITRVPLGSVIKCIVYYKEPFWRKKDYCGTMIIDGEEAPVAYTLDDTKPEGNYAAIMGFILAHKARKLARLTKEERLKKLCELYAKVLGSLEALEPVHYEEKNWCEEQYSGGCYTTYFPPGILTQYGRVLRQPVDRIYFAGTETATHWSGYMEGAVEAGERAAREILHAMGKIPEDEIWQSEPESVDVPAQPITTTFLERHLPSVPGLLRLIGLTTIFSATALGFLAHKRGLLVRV
Summary of the method: as §1

[4] = molecular target: T4, recombinant human DAO (diamine oxidase) (Homo sapiens, UniProt P19801); experiment: Activity on recombinant human DAO, method similar to the VAP-1 assay; conditions: substrate 1 mM putrescine; read-out: Inhibitory Activity (IC50, nM) DAO
T4 construct: purchased R&D systems
T4 sequence (P19801 20-751): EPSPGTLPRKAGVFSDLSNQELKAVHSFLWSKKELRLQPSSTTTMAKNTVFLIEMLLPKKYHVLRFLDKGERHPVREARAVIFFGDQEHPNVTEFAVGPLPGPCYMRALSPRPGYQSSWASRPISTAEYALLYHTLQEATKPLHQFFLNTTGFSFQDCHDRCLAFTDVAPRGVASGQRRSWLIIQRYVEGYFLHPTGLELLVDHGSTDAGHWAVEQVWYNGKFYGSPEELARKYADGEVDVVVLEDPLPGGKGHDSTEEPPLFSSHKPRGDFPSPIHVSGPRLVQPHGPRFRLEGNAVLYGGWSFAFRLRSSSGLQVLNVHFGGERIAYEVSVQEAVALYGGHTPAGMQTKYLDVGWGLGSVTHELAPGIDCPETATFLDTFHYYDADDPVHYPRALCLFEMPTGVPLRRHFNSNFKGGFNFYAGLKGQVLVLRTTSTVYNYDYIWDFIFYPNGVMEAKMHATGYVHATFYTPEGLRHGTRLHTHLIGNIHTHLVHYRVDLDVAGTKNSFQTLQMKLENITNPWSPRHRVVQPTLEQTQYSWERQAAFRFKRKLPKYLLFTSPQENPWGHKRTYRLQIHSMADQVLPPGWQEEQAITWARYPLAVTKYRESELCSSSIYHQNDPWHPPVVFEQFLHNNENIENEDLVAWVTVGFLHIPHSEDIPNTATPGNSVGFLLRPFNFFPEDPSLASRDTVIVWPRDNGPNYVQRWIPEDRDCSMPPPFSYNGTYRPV
Summary of the method: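 Inhibition of recombinant human diamine oxidase (DAO, R&D systems) was assessed by the same approach as the VAP-1 assay, using 1 mM putrescine as substrate. Hydrogen peroxide formed was detected through an HRP-coupled Amplex Red reaction yielding fluorescent resorufin, read at 544 nm excitation and 590 nm emission. IC50 values came from four-parameter logistic fitting in GraphPad Prism.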

In the case of `NC/C(=C/F)Cn1ncn(Cc2ccc(-c3ccc4c(c3)OCO4)s2)c1=O` [Example 60, 2-[(2Z)-2-(aminomethyl)-3-fluoroprop-2-en-1-yl]-4-[5-(1,3-benzodioxol-5-yl)thiophen-2-yl]methyl-2,4-dihydro-3H-1,2,4-triazol-3-one hydrochloride], the IC50 [1] is reported as 1.8 nM, the IC50 [2] is reported as greater than 10000 nM and the IC50 [3] is reported as less than 100 nM. The IC50 [4] was 3000 nM.
Work on `NC/C(=C/F)Cn1ncn(Cc2ccc(-c3ccc4nonc4c3)s2)c1=O` [Example 61, 2-[(2Z)-2-(aminomethyl)-3-fluoroprop-2-en-1-yl]-4-[5-(2,1,3-benzooxadiazol-5-yl)thiophen-2-yl]methyl-2,4-dihydro-3H-1,2,4-triazol-3-one hydrochloride] yielded an IC50 [1] of 1.1 nM, an IC50 [2] of 16000 nM and an IC50 [3] of 10.1 nM. For the same molecule, the IC50 [4] was less than 100 nM.
`NC/C(=C\F)Cn1ncn(Cc2ccc(-c3ccc4ocnc4c3)s2)c1=O` [Example 62, 2-[(2E)-2-(aminomethyl)-3-fluoroprop-2-en-1-yl]-4-[5-(1,3-benzooxazol-5-yl)thiophen-2-yl]methyl-2,4-dihydro-3H-1,2,4-triazol-3-one hydrochloride] showed an IC50 [1] of 3.7 nM, an IC50 [2] of 2100 nM and an IC50 [3] of 310 nM. It also gave an IC50 [4] of 530 nM.
Molecule `NC/C(=C\F)Cn1ncn(Cc2ccc(-c3ccc4[nH]ncc4c3)s2)c1=O` [Example 63, 2-[(2E)-2-(aminomethyl)-3-fluoroprop-2-en-1-yl]-4-[5-(1H-indazol-5-yl)thiophen-2-yl]methyl-2,4-dihydro-3H-1,2,4-triazol-3-one hydrochloride] has an IC50 [1] of 0.9 nM, an IC50 [2] of 67000 nM and an IC50 [3] of 380 nM. The IC50 [4] was 1200 nM.
`NC/C(=C\F)Cn1ncn(Cc2ccc(-c3cnc4scnc4c3)s2)c1=O` [Example 64, 2-[(2E)-2-(aminomethyl)-3-fluoroprop-2-en-1-yl]-4-[5-([1,3]thiazolo[5,4-b]pyridin-6-yl)thiophen-2-yl]methyl-2,4-dihydro-3H-1,2,4-triazol-3-one hydrochloride] gave an IC50 [1] of 0.7 nM, an IC50 [2] of 6700 nM and an IC50 [3] of 2200 nM. The IC50 [4] was 110 nM.
`NC/C(=C\F)Cn1ncn(Cc2ccc(-c3cnc4[nH]ccc4c3)s2)c1=O` [Example 65, 2-[(2E)-2-(aminomethyl)-3-fluoroprop-2-en-1-yl]-4-[5-(1H-pyrrolo[2,3-b]pyridin-5-yl)thiophen-2-yl]methyl-2,4-dihydro-3H-1,2,4-triazol-3-one hydrochloride] gave an IC50 [1] of 0.7 nM, an IC50 [2] greater than 100000 nM and an IC50 [3] of 3400 nM. For the same molecule, the IC50 [4] was 1500 nM.
With `NC/C(=C\F)Cn1ncn(Cc2ccc(-c3ccn4ncnc4c3)s2)c1=O` [Example 66, 2-[(2E)-2-(aminomethyl)-3-fluoroprop-2-en-1-yl]-4-[5-([1,2,4]triazolo[1,5-a]pyridin-7-yl)thiophen-2-yl]methyl-2,4-dihydro-3H-1,2,4-triazol-3-one hydrochloride] the IC50 [1] was 0.5 nM, the IC50 [2] was greater than 10000 nM and the IC50 [3] was 1200 nM. For the same molecule, the IC50 [4] was 340 nM.
In the case of `NC/C(=C\F)Cn1ncn(Cc2ccc(-c3ccc4c(c3)C(=O)NC4)s2)c1=O` [Example 67, 6-[5-(1-[(2E)-2-(aminomethyl)-3-fluoroprop-2-en-1-yl]-5-oxo-1,5-dihydro-4H-1,2,4-triazol-4-ylmethyl)thiophen-2-yl]-2,3-dihydro-1H-isoindol-1-one hydrochloride], the IC50 [1] is reported as 0.3 nM, the IC50 [2] is reported as greater than 100000 nM and the IC50 [3] is reported as 11000 nM. It also gave an IC50 [4] of 1200 nM.
`NC/C(=C\F)Cn1ncn(Cc2ccc(-c3ccc4c(c3)CNC4=O)s2)c1=O` [Example 68, 5-[5-(1-[(2E)-2-(aminomethyl)-3-fluoroprop-2-en-1-yl]-5-oxo-1,5-dihydro-4H-1,2,4-triazol-4-ylmethyl)thiophen-2-yl]-2,3-dihydro-1H-isoindol-1-one hydrochloride] showed an IC50 [1] of 0.4 nM, an IC50 [2] greater than 100000 nM and an IC50 [3] of 1600 nM. It also gave an IC50 [4] of 1000 nM.
`NC/C(=C\F)Cn1ncn(Cc2ccc(-c3ccc4c(c3)CC(=O)N4)s2)c1=O` [Example 69, 5-[5-(1-[(2E)-2-(aminomethyl)-3-fluoroprop-2-en-1-yl]-5-oxo-1,5-dihydro-4H-1,2,4-triazol-4-ylmethyl)thiophen-2-yl]-1,3-dihydro-2H-indol-2-one hydrochloride] showed an IC50 [1] of 0.1 nM, an IC50 [2] of 70000 nM and an IC50 [3] of 1800 nM. The IC50 [4] was 1100 nM.
In the case of `NC/C(=C\F)Cn1ncn(Cc2ccc(-c3cc(F)c4c(c3)CNC4=O)s2)c1=O` [Example 70, hydrochloride], the IC50 [1] is reported as 0.1 nM, the IC50 [2] is reported as greater than 100000 nM and the IC50 [3] is reported as 2800 nM. The IC50 [4] was 289 nM.
Molecule `NC/C(=C\F)Cn1ncn(Cc2ccc(-c3cc(F)c4c(c3)CC(=O)N4)s2)c1=O` [Example 71, 5-[5-[[1-[(E)-2-(aminomethyl)-3-fluoro-allyl]-5-oxo-1,2,4-triazol-4-yl]methyl]-2-thienyl]-7-fluoro-indolin-2-one hydrochloride] has an IC50 [1] of 0.2 nM, an IC50 [2] greater than 100000 nM and an IC50 [3] greater than 10000 nM. It also gave an IC50 [4] of 530 nM.
